From patent US20130253449A1, “NORADRENERGIC AND SPECIFIC SEROTONERGIC ANTIDEPRESSANT-CONTAINING TRANSDERMAL PATCH” (priority 2010, published 2013)

Assays:
[1] = test system: brain monoamine (NA, DA and 5-HT); assay: Measurement of brain monoamine level (microdialysis, prefrontal region) during 12-hour mirtazapine administration; type: in vivo, rat
Description: Rats (male, body weight: 200 to 300 g, n=5) were anesthetized by inhalation of isoflurane, and then a cannula for long-term continuous administration was buried under the skin of each rat and a guide (microdialysis) was in the prefrontal region thereof. In 5 to 7 days after the guide insertion, a probe for measurement of monoamine in the brain was inserted into the prefrontal region, and via the microsyringe pump connected to the probe, a perfusate was perfused at a flow rate of 0.5 μL/min. For mirtazapine administration, a mirtazapine 3 mg/mL/kg solution was administered in a predetermined dose via the microsyringe pump, taking 12 hours. A Ringer' s solution was used as the perfusate, which was collected at intervals of 1 hour using a fraction collector.
(§1) Monoamine was measured from the perfusate collected by the fraction collector, and mirtazapine was measured from the plasma sample through HPLC.

[2] = Measurement of plasma mirtazapine level during 12-hour mirtazapine administration; type: in vivo; settings: rat, subcutaneous, 6 hours after start of administration, 3 mg/mL/kg over 12 hours, read-out: mean concentration of mirtazapine in rat plasma (mean±SEM)
Description: Next, at the same dose mode and through the same administration route as above, mirtazapine (3 mg/mL/kg) was administered in a predetermined dose, taking 12 hours, and in 6 hours after the start, the blood was collected. The time at which the administration was started was referred to as the test start time. Heparin was added to the collected blood and then centrifuged, and the thus-separated plasma was the sample.
as §1

[3] = 18 hours after start of administration, mirtazapine 3 mg/mL/kg solution over 12 hours

## CN1CCN2c3ncccc3Cc3ccccc3C2C1 (stereo not shown) [mirtazapine]
[1]; 1 hour after start of mirtazapine administration
  NA and DA in rat prefrontal region: increase in NA and DA was admitted
[1]; 7 hours after start of administration, mirtazapine 3 mg/mL/kg solution over 12 hours, n=5
  NA level in rat prefrontal region (mean±SEM): 184.7±17.3%
[1]; 8 hours after start of administration, mirtazapine 3 mg/mL/kg solution over 12 hours, n=5
  DA level in rat prefrontal region: 222.1±38.5%
[1]; [3]
  DA level in rat prefrontal region: 159.2±15.6%
  NA level in rat prefrontal region: 124.2±10.7
[1]; mirtazapine 3 mg/mL/kg solution over 12 hours
  influence on 5-HT in rat prefrontal region: no influence on 5-HT was admitted
[2]
  concentration at 6 h: 27.5 ± 3.5 ng/mL
